Laboratory results as given in article PMC10892935 (Viruses, 2024).
Converted amounts (≈) assume the structure as drawn. Read-outs that look alike come from different tables or passages of the source.

Tests used:
in vitro = conditions: cat
FHV-1 [1] = experiment: Time of drug addition assay with qPCR of viral nucleic acid copies; format: cell-based, feline herpesvirus-1 (FHV-1); conditions: for Inhibition of FHV-1 entry into host cells (virus entry assay): 4 °C pre-incubation then 37 °C, Saikosaponin B2 50 μg/mL; for FHV-1 nucleic acid copy numbers after drug pretreatment of cells: CRFK cells pretreated before infection, qPCR
FHV-1 [2] = experiment: Cytopathic effect (CPE) inhibition assay; conditions: for EC50: Felid alphaherpesvirus 1, CRFK, 48 h; for Anti-FHV-1: in vitro anti-FHV-1 effect in CRFK cells, √ / × (key not given)
FHV-1 [3] = experiment: Plaque reduction assay; format: cell-based, feline herpesvirus-1 (FHV-1); conditions: CRFK cells
FHV-1 [4] = experiment: Fusion and entry assays with DIOC- and R18-labelled virus (confocal microscopy); format: cell-based, feline herpesvirus-1 (FHV-1); conditions: 10 MOI, CRFK cells; for Adsorption of DIOC-labelled FHV-1: 4 °C 2 h
gB = format: binding, feline herpesvirus-1 (FHV-1)
FHV-1 gB = FHV-1 gB (Feline herpesvirus 1, UniProt Q86665); experiment: biochemical; format: binding, feline herpesvirus-1 (FHV-1); conditions: for Binding and dissociation kinetics in words: BLI, gB; for koff: read-out: Kdis (rate of dissociation); for kon: read-out: Kon (rate of association)
FHV-1 [5] = test system: FHV-1; design: method as in earlier work; conditions: reported for CRFK cells; cited from earlier work
CRFK cells = conditions: 48 h, CCK-8

In the case of `O=C1O[C@H]2[C@@H]3OC(=O)c4cc(O)c(O)c(O)c4-c4c(O)c(O)c5oc(=O)c6c(c(O)c(O)c7oc(=O)c4c5c76)-c4c(cc(O)c(O)c4O)C(=O)OC[C@H]3OC(O)[C@@H]2OC(=O)c2cc(O)c(O)c(O)c2-c2c1cc(O)c(O)c2O` (mixture of isomers) [Punicalagin], the CC50 at 48 h (in vitro) is reported as 3.32 ± 0.28 µg/mL, the “Inhibition of FHV-1 entry into host cells (virus entry assay)” value (“Inhibition … (virus entry assay)” below) (FHV-1 [1]) is reported as “reduced effectiveness in inhibiting virus infection” and the “FHV-1 nucleic acid copy numbers after drug pretreatment of cells” value (from here on “FHV-1 nucleic acid copy numbers”) (FHV-1 [1]) is reported as “negligible changes”. The EC50 (FHV-1 [2]) was 2.19 µg/mL, the Anti-FHV-1 (FHV-1 [2]) was “√” and the “Inhibition of FHV-1-induced cytopathic effects and plaque formation” value (FHV-1 [3]) was “effective inhibitors”. For the same molecule, the “Adsorption of DIOC-labelled FHV-1” value (FHV-1 [4]) was “inhibit the adsorption of FHV-1”, the “Thermal stability (Tm) of gB” value (gB) was “altered the thermal stability of gB” and the Kd (FHV-1 gB) was under 1e-06 µM. The “Binding and dissociation kinetics in words” value (FHV-1 gB) was “rapid binding with no dissociation”, the koff (FHV-1 gB) was under 1e-07 s⁻¹ and the kon (FHV-1 gB) was 8740 M⁻¹ s⁻¹.
In the case of `O=C1OC[C@H]2OC(O)[C@H](O)[C@@H](O)[C@@H]2OC(=O)c2cc(O)c(O)c(O)c2-c2c(O)c(O)c3oc(=O)c4c(c(O)c(O)c5oc(=O)c2c3c54)-c2c1cc(O)c(O)c2O` (mixture of isomers) [Punicalin], the CC50 at 48 h (in vitro; CRFK cells) is reported as 7.65 ± 0.68 µg/mL, the “Inhibition … (virus entry assay)” value (FHV-1 [1]) is reported as “reduced effectiveness in inhibiting virus infection” and the “FHV-1 nucleic acid copy numbers” value (FHV-1 [1]) is reported as “negligible changes”. The EC50 (FHV-1 [2]) was 0.22 µg/mL, the Anti-FHV-1 (FHV-1 [2]) was “√” and the “Inhibition of FHV-1-induced cytopathic effects and plaque formation” value (FHV-1 [3]) was “effective inhibitors”. The “Adsorption of DIOC-labelled FHV-1” value (FHV-1 [4]) was “inhibit the adsorption of FHV-1”, the “Thermal stability (Tm) of gB” value (gB) was “altered the thermal stability of gB” and the Kd (FHV-1 gB) was under 1e-06 µM. For the same molecule, the “Binding and dissociation kinetics in words” value (FHV-1 gB) was “rapid binding with no dissociation”, the koff (FHV-1 gB) was under 1e-07 s⁻¹ and the kon (FHV-1 gB) was 12500 M⁻¹ s⁻¹.
With `O=c1c(O[C@@H]2O[C@H](CO)[C@H](O)[C@H](O)[C@H]2O)c(-c2ccc(O)c(O)c2)oc2cc(O)cc(O)c12` [Hyperoside] the CC50 at 48 h (in vitro) was over 50 µg/mL, the Anti-FHV-1 (FHV-1 [2]) was “×” and the Kd (FHV-1 gB) was 23.9 µM. It also gave a koff (FHV-1 gB) of 0.00683 s⁻¹ and a kon (FHV-1 gB) of 286 M⁻¹ s⁻¹.
For `O=C(O)P(=O)(O)O` [Foscarnet], the EC50 (FHV-1 [5]) is listed as 44.71 µg/mL (≈ 355 µM).
In the case of `Nc1nc2c(ncn2CCC(CO)CO)c(=O)[nH]1` [Penciclovir], the EC50 (FHV-1 [5]) is listed as 3.50 µg/mL (≈ 13.8 µM).
With `O=C(O)[C@H]1O[C@@H](Oc2cc3oc(-c4ccc(O)cc4)cc(=O)c3c(O)c2O)[C@H](O)[C@@H](O)[C@@H]1O` [Scutellarin] the CC50 at 48 h (in vitro) was 185 ± 3.37 µg/mL (≈ 401 µM), the Anti-FHV-1 (FHV-1 [2]) was “×” and the Kd (FHV-1 gB) was 0.647 µM. The koff (FHV-1 gB) was 0.00875 s⁻¹ and the kon (FHV-1 gB) was 13500 M⁻¹ s⁻¹.
In the case of `C=CCS[S+]([O-])CC=C` (centres unmarked) [Allicin], the CC50 at 48 h (in vitro) is reported as 84.9 ± 0.87 µg/mL (≈ 523 µM), the Anti-FHV-1 (FHV-1 [2]) is reported as “×” and the Kd (FHV-1 gB) is reported as 3530 µM. It also gave a koff (FHV-1 gB) of 0.00299 s⁻¹ and a kon (FHV-1 gB) of 0.846 M⁻¹ s⁻¹.
With `O=c1c(O[C@@H]2O[C@H](CO)[C@@H](O)[C@H](O)[C@H]2O)c(-c2ccc(O)c(O)c2)oc2cc(O)cc(O)c12` [Isoquercetin] the CC50 at 48 h (in vitro) was 289 ± 5.69 µg/mL (≈ 623 µM), the Anti-FHV-1 (FHV-1 [2]) was “×” and the Kd (FHV-1 gB) was 73.3 µM. The koff (FHV-1 gB) was 0.0179 s⁻¹ and the kon (FHV-1 gB) was 245 M⁻¹ s⁻¹.
For `O=C(/C=C/c1ccc(O)c(O)c1)O[C@@H]1C[C@@](OC(=O)/C=C/c2ccc(O)c(O)c2)(C(=O)O)C[C@@H](O)[C@@H]1O` [Cynarine], the CC50 at 48 h (in vitro; CRFK cells) was 60.1 ± 1.86 µg/mL (≈ 116 µM), the Anti-FHV-1 (FHV-1 [2]) was “×” and the Kd (FHV-1 gB) was 8.41 µM. It also gave a koff (FHV-1 gB) of 0.00596 s⁻¹ and a kon (FHV-1 gB) of 709 M⁻¹ s⁻¹.
With `O=C(O)c1cc(O)c2c(c1)[C@H]([C@H]1c3cc(C(=O)O)cc(O)c3C(=O)c3c(O[C@@H]4O[C@H](CO)[C@@H](O)[C@H](O)[C@H]4O)cccc31)c1cccc(O[C@@H]3O[C@H](CO)[C@@H](O)[C@H](O)[C@H]3O)c1C2=O` [Sennoside A] the CC50 at 48 h (in vitro) was 131 ± 8.86 µg/mL (≈ 152 µM), the Anti-FHV-1 (FHV-1 [2]) was “×” and the Kd (FHV-1 gB) was under 1e-06 µM. The koff (FHV-1 gB) was under 1e-07 s⁻¹ and the kon (FHV-1 gB) was 1440 M⁻¹ s⁻¹.
With Ivermectin the CC50 (CRFK cells) was 1.81 ± 0.06 µg/mL and the Anti-FHV-1 (FHV-1 [2]) was “×”.
For `C[C@@H]1O[C@@H](O[C@@H]2[C@@H](O)[C@H](OCCc3ccc(O)c(O)c3)O[C@H](CO)[C@H]2OC(=O)/C=C/c2ccc(O)c(O)c2)[C@H](O)[C@H](O)[C@H]1O` [Verbascoside], the CC50 at 48 h (in vitro) was 79.6 ± 0.99 µg/mL (≈ 127 µM), the Anti-FHV-1 (FHV-1 [2]) was “×” and the Kd (FHV-1 gB) was 39.9 µM. It also gave a koff (FHV-1 gB) of 0.00729 s⁻¹ and a kon (FHV-1 gB) of 183 M⁻¹ s⁻¹.
For `Nc1nc2c(ncn2COCCO)c(=O)[nH]1` [Acyclovir], the EC50 (FHV-1 [5]) is given as 13.04 µg/mL (≈ 57.9 µM).
For `Nc1ccn(C[C@@H](CO)OCP(=O)(O)O)c(=O)n1` [Cidofovir], the EC50 (FHV-1 [5]) is given as 3.07 µg/mL (≈ 11 µM).
In the case of `CC1OC(OC2CCC3(C)C(CCC4(C)C3C=CC3=C5CC(C)(C)CCC5(CO)C(O)CC34C)C2(C)CO)C(O)C(OC2OC(CO)C(O)C(O)C2O)C1O` (centres unmarked) [Saikosaponin B2], the CC50 at 48 h (in vitro; CRFK cells) is reported as 197.5 ± 0.52 µg/mL (≈ 253 µM), the “Inhibition … (virus entry assay)” value (FHV-1 [1]) is reported as “exhibited inhibitory effects” and the “FHV-1 nucleic acid copy numbers” value (FHV-1 [1]) is reported as “negligible changes”. For the same molecule, the “Viral nucleic acid expression with drug treatment after infection” value (FHV-1 [1]; drug applied to CRFK cells infected with FHV-1, qPCR) was “remarkably significant difference”, the EC50 (FHV-1 [2]) was 13.5 µg/mL (≈ 17.3 µM) and the Anti-FHV-1 (FHV-1 [2]) was “√”. The “Inhibition of FHV-1-induced cytopathic effects and plaque formation” value (FHV-1 [3]) was “effective inhibitors”, the “Adsorption of DIOC-labelled FHV-1” value (FHV-1 [4]) was “inhibit the adsorption of FHV-1” and the “Entry of R18-labelled FHV-1” value (FHV-1 [4]; 4 °C 2 h then 37 °C 2 h) was “inhibited the entry of FHV-1”. The “Thermal stability (Tm) of gB” value (gB) was “altered the thermal stability of gB” and the “Binding and dissociation kinetics in words” value (FHV-1 gB) was “rapid binding and dissociation”.
In the case of `COc1ccc(-c2cc(=O)c3c(O)cc(O[C@@H]4O[C@H](CO[C@@H]5O[C@@H](C)[C@H](O)[C@@H](O)[C@H]5O)[C@@H](O)[C@H](O)[C@H]4O)cc3o2)cc1O` [Diosmin], the CC50 at 48 h (in vitro) is reported as 449.75 ± 0.21 µg/mL (≈ 739 µM), the Anti-FHV-1 (FHV-1 [2]) is reported as “×” and the Kd (FHV-1 gB) is reported as 90.8 µM. It also gave a koff (FHV-1 gB) of 0.034 s⁻¹ and a kon (FHV-1 gB) of 374 M⁻¹ s⁻¹.
In the case of `O=C(C=Cc1ccc(O)c(O)c1)OC1CC(O)(C(=O)O)CC(O)C1OC(=O)C=Cc1ccc(O)c(O)c1` (centres unmarked) [4,5-Dicaffeoylquinic acid], the CC50 at 48 h (in vitro; CRFK cells) is reported as 54.5 ± 2.89 µg/mL (≈ 106 µM), the Anti-FHV-1 (FHV-1 [2]) is reported as “×” and the Kd (FHV-1 gB) is reported as 7.96 µM. The koff (FHV-1 gB) was 0.0652 s⁻¹ and the kon (FHV-1 gB) was 8180 M⁻¹ s⁻¹.
In the case of `O=c1[nH]c(=O)n([C@H]2C[C@H](O)[C@@H](CO)O2)cc1I` [Idoxuridine], the EC50 (FHV-1 [5]) is listed as 1.52 µg/mL (≈ 4.29 µM).
For `Nc1nc(O)c2ncn(COC(CO)CO)c2n1` [Ganciclovir], the EC50 (FHV-1 [5]) is given as 1.33 µg/mL (≈ 5.21 µM).
With `O=C1c2c(O)cc(O)cc2O[C@H](c2cc(O)c(O)c(O)c2)[C@H]1O` [Dihydromyricetin] the CC50 at 48 h (in vitro) was 3.22 ± 0.43 µg/mL (≈ 10.1 µM), the Anti-FHV-1 (FHV-1 [2]) was “×” and the Kd (FHV-1 gB) was 36.1 µM. For the same molecule, the koff (FHV-1 gB) was 0.00506 s⁻¹ and the kon (FHV-1 gB) was 140 M⁻¹ s⁻¹.
For `O=C(O)[C@H]1O[C@@H](Oc2cc3oc(-c4ccccc4)cc(=O)c3c(O)c2O)[C@H](O)[C@@H](O)[C@@H]1O` [Baicalin], the CC50 at 48 h (in vitro) was 65.8 ± 2.12 µg/mL (≈ 147 µM), the Anti-FHV-1 (FHV-1 [2]) was “×” and the Kd (FHV-1 gB) was 41.6 µM. For the same molecule, the koff (FHV-1 gB) was 0.922 s⁻¹ and the kon (FHV-1 gB) was 1090 M⁻¹ s⁻¹.
